Experimental data reported in paper PMC5666381, “Rapid Assessment of the Toxicity of Fungal Compounds Using Luminescent Vibrio qinghaiensis sp. Q67” (Toxins, 2017).
Values after ≈ are worked out from the molar mass of the structure shown.

Experiments:
[1] = tested on: V. fischeri; conditions: cited from earlier work
[2] = tested on: Aliivibrio fischeri; conditions: cited from earlier work
[3] = tested on: Vibrio qinghaiensis sp. Q67; test: microbe, parasite or virus in culture; type: cell-based; conditions: for IC50, luminescence inhibition of standard mycotoxins / IC50: V. qinghaiensis sp. Q67, 15 min exposure, 22 °C, 0.8% NaCl; for IC50: Vibrio qinghaiensis, 0.25 h, read-out: IC50, luminescence inhibition of standard mycotoxins
[4] = tested on: Photobacterium phosphoreum; conditions: Photobacterium phosphoreum bioluminescence; cited from earlier work
[5] = tested on: mice; conditions: ref Kouadio et al. (2013) [14]; cited from earlier work
[6] = tested on: human promyelocytic leukemia cell line HL60; conditions: HL60 cells; ref Nagashima and Nakagawa (2014) [13]; cited from earlier work
[7] = tested on: V. fischeri; conditions: ref Menz et al. (2013) [25]; cited from earlier work
[8] = tested on: kidney cells; conditions: cited from earlier work; for IC50: read-out: IC50, cytotoxic effects, ref Bouslimi et al. (2008) [29]; for IC50, cytotoxic effects: value in brackets after the µM value, ref Bouslimi et al. (2008) [29]

In the case of aflatoxin B1, the EC50 [1] is given as 14.4 µg/mL and the EC50 [2] is given as 23.3 µg/mL.

With `CCCC[C@@H](C)[C@@H](OC(=O)C[C@@H](CC(=O)O)C(=O)O)[C@H](C[C@@H](C)C[C@H](O)CCCC[C@@H](O)C[C@H](O)[C@H](C)N)OC(=O)C[C@@H](CC(=O)O)C(=O)O` [Fumonisin B1] the “IC50, luminescence inhibition of standard mycotoxins” value [3] was 14.88 ± 0.14 µg/mL.

In the case of `C[C@H]1CCCC(=O)CCC/C=C/c2cc(O)cc(O)c2C(=O)O1` [Zearalenone], the IC50 [3] is given as 9.71 ± 0.17 µg/mL (≈ 30.5 µM) and the “EC50 for toxic effects” value [4] is given as 13.51 µg/mL.

`O=C1C=C2C(=CCOC2O)O1` (stereo not shown) [Patulin] gave an IC50 [3] of 13.3 ± 0.14 µg/mL (≈ 86.4 µM).

For `CC1=C[C@H]2O[C@@H]3[C@H](O)C[C@](C)([C@@]2(CO)[C@H](O)C1=O)[C@]31CO1` [Deoxynivalenol], the “IC50, luminescence inhibition of standard mycotoxins” value [3] is listed as 30.74 ± 0.33 µg/mL, the “no-observed-adverse-effect level (NOAEL)” value [5] is listed as “lower than 45 µg kg^−1 day^−1” and the “IC50, cell proliferation” value [6] is listed as 0.36 µg/mL (≈ 1.21 µM).

For `O.O.O.O.O.O.O.O=S(=O)([O-])[O-].[Zn+2]` [ZnSO4, Zinc sulfate heptahydrate], the “IC50, inhibition of relative luminescence” value [7] is given as 26000 ± 3300 µg/mL and the “IC50, luminescence inhibition by ZnSO4” value ([3]; V. qinghaiensis Q67, reference substrate, 15 min) is given as 7640 ± 420 µg/mL.

In the case of `CC1=C2C(=CO[C@H](C)[C@H]2C)C(O)=C(C(=O)O)C1=O` [Citrinin], the IC50 [8] is listed as 220 µM, the “IC50, cytotoxic effects” value [8] is listed as 55.06 µg/mL (≈ 220 µM) and the IC50 [3] is listed as 12.23 ± 0.1 µg/mL (≈ 48.9 µM). The “EC50 for toxic effects” value [4] was 20.05 µg/mL.

For `C[C@@H]1Cc2c(Cl)cc(C(=O)N[C@@H](Cc3ccccc3)C(=O)O)c(O)c2C(=O)O1` [Ochratoxin A], the IC50 [8] is listed as 50 µM, the “IC50, cytotoxic effects” value [8] is listed as 20.15 µg/mL (≈ 49.9 µM) and the IC50 [3] is listed as 11.02 ± 0.1 µg/mL (≈ 27.3 µM). The “EC50 for toxic effects” value [4] was 16.88 µg/mL.
